Measured values: patent US11820720B2, “3-(5-substituted-4-oxoquinazolin-3(4H)-yl)-3-deuteropiperidine-2,6-dione derivatives and compositions comprising and methods of using the same” (DeuteRx, LLC, priority 2013, dated 2023)

How the values were obtained:
[1] = In vitro stability in CD-1 mouse plasma at 37° C. (enantiomerization, D/H exchange, degradation); assay type: in vitro ADME
Experimental: (§1) (+)- and (−)-3-(5-Amino-2-methyl-4-oxoquinazolin-3(4H)-yl)-piperidine-2,6-dione and rac-3-(5-amino-2-methyl-4-oxoquinazolin-3(4H)-yl)-(3-^2H)-piperidine-2,6-dione (87% deuterium content at the C3-position and no detectable deuterium at the C5-position, 50:50 racemic mixture of (+)- and (−)-deuterated enantiomers) were incubated in CD-1 mouse plasma (K3EDTA as anticoagulant) or human plasma (K3EDTA as anticoagulant) at 37° C. in duplicates. Aliquots were removed at t=0, 0.5, 1, 2, 6, 8, 24, 48, and 96 h.
(§2) Plasma proteins were precipitated by addition of acetonitrile containing internal standard (ISTD, tolbutamide) and the supernatants were analyzed semi-quantitatively by LC/MS-MS with elution on a chiral column (Daicel ChiralPak IE-3) for the separation of enantiomers (isocratic method of 20:80 v/v 0.1% acetic acid in water and acetonitrile). Peak areas for the deuterated enantiomers (+)- and (−)-3-(5-amino-2-methyl-4-oxoquinazolin-3(4H)-yl)-(3-^2H)-piperidine-2,6-dione were normalized to the ISTD and corrected for the isotopic peak of the corresponding protonated enantiomer, (+)- and (−)-3-(5-amino-2-methyl-4-oxoquinazolin-3(4H)-yl)-piperidine-2,6-dione respectively, if present. Corrected data were analyzed and plotted using Microsoft Excel 2013 (Microsoft Corp, Redmond, WA) and the Excel Solver.
(§3) Scheme 1 below illustrates the possible reactions in a solution of deuterated racemate. The deuterium in both enantiomers, d+ and d−, can be lost by D/H exchange to give both protonated enantiomers, h+ and h− with rate constants kD++, kD+−, kD−+, kD−−. At the same time, the protonated enantiomers h+ and h−, can exchange, with enantiomerization rate constants k+− and k−+. All four compounds can also degrade with potentially different degradation rate constants kh+d, kh−d, kd+d, kd−d.
(§4) Human and mouse plasma data were analyzed independently. Independent analyses of the data for h+ and h− were performed first and the average rate constants k+− and k−+ from these two fits were calculated and used as constants in the fitting of the stability data of the deuterated racemate. Calculated concentrations were obtained through numerical approximation of differential equations (1) and (2) for the stability studies of h+ and h− and equations (3) to (6) for the stability study of deuterated racemate (50:50 d+:d−) by the Euler method (equation (7)). The step between calculated time points was minimized in order to minimize the local error (proportional to the square of the step size) and the global error (proportional to the step size).
(§5) The average degradation rate constant obtained by fitting the data for h+ and h− was used in the fit of the stability data of the deuterated racemate. Data analysis was performed in Microsoft Excel 2013, using the Solver Generalized Reduced Gradient Nonlinear method with central derivatives to minimize the sum of sums of weighted Δ^2, square of difference between ISTD-normalized experimental data and calculated value, divided by the experimental data.
(§6) [formula] where [h+], [h−], [d+], [d−] are the concentrations of both protonated and deuterated enantiomers, k+− and k−+ are the rate constants for the enantiomerization reactions [h+] to [h−] and [h−] to [h+] respectively, kD++, kD+−, kD−+, and kD−− are the rate constants for the D/H exchange reactions [d+] or [d−] to [h+] or [h−], and kd is the rate constant for the degradation of all four compounds
(§7) [formula] where [X]ti is the concentration of either enantiomer at time ti, t1 is a time at which [X] is known, t2 is a time at which [X] is calculated, and [d[X]]t1 is the calculated value of the differential equation at time t1.

[2] = In vitro stability in human plasma at 37° C. (enantiomerization, D/H exchange, degradation); assay type: in vitro ADME
Experimental: as §1, §2, §3, §4, §5, §6, §7

[3] = Pharmacokinetics after single oral gavage dose in female CB.17 SCID mice; assay type: in vivo; settings: for AUC, compound analyzed d+ / AUC, compound analyzed d− / AUC, compound analyzed h+ / AUC, compound analyzed h−: 15 mg/kg
Experimental: Female CB.17 SCID mice (8-12 weeks of age) were administered a single dose of protonated racemate (h-rac, 30 mg/kg), d− (15 mg/kg), or d+ (15 mg/kg) by oral gavage. Deuterated enantiomers (i.e., d− and d+) used in this study contain ˜10% of the corresponding protonated enantiomer. Blood was collected into potassium EDTA (K2EDTA) containers by terminal cardiac puncture under carbon dioxide anesthesia from N=3 per group per time point at 0.25, 0.5, 1, 2, 4, 8, and 24 h post-dose. Plasma was isolated, frozen, and stored until ready for analysis.
Samples were prepared for quantitative analysis by liquid-liquid extraction in methyl-t-butylether (MTBE) with ondansetron as internal standard (ISTD). MTBE was evaporated under nitrogen flow and samples were reconstituted in 1% acetic acid in water/acetonitrile (20/80). Analysis was performed by chiral LC/MS-MS on a Daicel ChiralPak IE-3 column using an isocratic LC method of 0.1% acetic acid in water and acetonitrile (20:80 v/v). ISTD-normalized peak areas for deuterated enantiomers d- and d+ were corrected from interference from naturally occurring isotopes of the protonated analytes. Concentrations were obtained by interpolation on standard curves prepared in mouse plasma using standard solutions of the analytes.
Data was plotted in Excel 2013 (Microsoft Corp, Redmond, WA) and analyzed within Excel using the PKSolver add-in (version 2.0, as described in Zhang Y. et al Comput. Methods Programs Biomed. 99 (2010), 306-314) to determine pharmacokinetic parameters including exposure (as area under the curve, AUC) and elimination half-life (t1/2).

[4] = test system: Human Multiple Myeloma H929 Cell Line; test: Efficacy in human multiple myeloma H929 xenograft in female CB.17 SCID mice; assay type: in vivo; settings: daily oral gavage 23 days, FIG. 10; for potency/efficacy at limiting tumor growth, comparison between compounds: d− and d+ 1.5 or 15 mg/kg, h-rac 3 mg/kg
Experimental: Female CB.17 SCID mice (8-12 weeks of age, N=60) were administered 1×10^7 H929 tumor cells in 50% Matrigel subcutaneously in their flank (0.2 mL/mouse). Animals were returned to their cages and tumor growth was monitored. Tumor size was reported as tumor volume (Vol) calculated as Vol=½ (L*W^2), where L and W are the length and width of the tumor as measured by caliper (L>W). A pair match was performed when tumors reached an average size of 100-150 mm^3 and the animals were divided into 6 treatment groups of N=10 animals each.
Animals were treated daily by oral gavage (10 mL/kg) with vehicle, d− (1.5 or 15 mg/kg), d+ (1.5 or 15 mg/kg), or h-rac (racemic mixture of protonated enantiomers h− and h+; 3 mg/kg). The compound h-rac was administered at twice the dose of the deuterated enantiomers since it contains 50% (i.e., 1.5 mg/kg) of each enantiomer. Body weight measurements were taken daily for the first week then biweekly. Tumor sizes were measured by caliper biweekly. The study was terminated after 23 days of dosing, then all animals were euthanized.

[5] = mouse plasma, 37° C., fit to equations 1 to 6
[6] = mouse plasma, 37° C., average of values for h− and h+
[7] = human plasma, 37° C., fit to equations 1 to 6
[8] = human plasma, 37° C., average of values for h− and h+
[9] = mouse plasma, single oral gavage 15 mg/kg

3-(5-amino-2-methyl-4-oxoquinazolin-3(4H)-yl)-(3-^2H)-piperidine-2,6-dione [d-rac]
Calculated half-life t1/2, D/H exchange of d+ (D++ and D+−) ([1]; mouse plasma, 37° C.): 14.5 h | Calculated half-life t1/2, D/H exchange of d− (D−+ and D−−) ([1]; mouse plasma, 37° C.): 12.7 h | Calculated half-life t1/2, degradation d ([1]; mouse plasma, 37° C.): 13.0 h | Calculated half-life t1/2, enantiomerization +− ([1]; mouse plasma, 37° C.): 10.5 h | Calculated half-life t1/2, enantiomerization −+ ([1]; mouse plasma, 37° C.): 7.2 h | k D++ (rate constant D/H exchange d+ to h+) [1, 5]: 1.29e-05 s⁻¹ | k D+− (rate constant D/H exchange d+ to h−) [1, 5]: 3.03e-07 s⁻¹ | k D−+ (rate constant D/H exchange d− to h+) [1, 5]: 4.61e-06 s⁻¹ | k D−− (rate constant D/H exchange d− to h−) [1, 5]: 1.06e-05 s⁻¹ | k +− (enantiomerization rate constant used in analysis of d-rac) [1, 6]: 0.0662 h⁻¹ | k d (degradation rate constant for the enantiomers of d-rac) [1, 6]: 1.48e-05 s⁻¹ | k −+ (enantiomerization rate constant used in analysis of d-rac) [1, 6]: 0.0959 h⁻¹ | Calculated half-life t1/2, D/H exchange of d+ (D++ and D+−) ([2]; human plasma, 37° C.): 8.3 h | Calculated half-life t1/2, D/H exchange of d− (D−+ and D−−) ([2]; human plasma, 37° C.): 5.2 h | Calculated half-life t1/2, degradation d ([2]; human plasma, 37° C.): 7.8 h | Calculated half-life t1/2, enantiomerization +− ([2]; human plasma, 37° C.): 2.6 h | Calculated half-life t1/2, enantiomerization −+ ([2]; human plasma, 37° C.): 3.6 h | k D++ (rate constant D/H exchange d+ to h+) [2, 7]: 2.33e-05 s⁻¹ | k D+− (rate constant D/H exchange d+ to h−) [2, 7]: 0 s⁻¹ | k D−+ (rate constant D/H exchange d− to h+) [2, 7]: 0 s⁻¹ | k D−− (rate constant D/H exchange d− to h−) [2, 7]: 3.72e-05 s⁻¹ | k +− (enantiomerization rate constant used in analysis of d-rac) [2, 8]: 0.264 h⁻¹ | k d (degradation rate constant for the enantiomers of d-rac) [2, 8]: 2.51e-05 s⁻¹ | k −+ (enantiomerization rate constant used in analysis of d-rac) [2, 8]: 0.195 h⁻¹

[2H]C1(n2c(C)nc3cccc(N)c3c2=O)CCC(=O)NC1=O (single isomer, unassigned; (+)) [d+, (+)-3-(5-Amino-2-methyl-4-oxoquinazolin-3(4H)-yl)-(3-^2H)-piperidine-2,6-dione]
t1/2, compound analyzed d+ [3, 9]: 1.1 h | t1/2, compound analyzed h+ [3, 9]: 1.0 h | AUC, compound analyzed d+ [3, 9]: 63600 ng·h/mL | AUC, compound analyzed d− [3, 9]: 661 ng·h/mL | AUC, compound analyzed h+ [3, 9]: 6120 ng·h/mL | AUC, compound analyzed h− [3, 9]: 993 ng·h/mL | efficacy (tumor volume) by dose ([4]; 1.5 or 15 mg/kg): observed only at the highest dose | potency/efficacy at limiting tumor growth, comparison between compounds [4]: less efficacious than d−

Cc1nc2cccc(N)c2c(=O)n1C1CCC(=O)NC1=O (single isomer, unassigned; (+)) [h+, (+)-3-(5-amino-2-methyl-4-oxoquinazolin-3(4H)-yl)-piperidine-2,6-dione, reference compound]
k +− (enantiomerization rate constant h+ to h−) ([1]; CD-1, mouse): 0.0603 h⁻¹ | k d (degradation rate constant) ([1]; CD-1, mouse): 1.45e-05 s⁻¹ | k −+ (enantiomerization rate constant h− to h+) ([1]; CD-1, mouse): 0.119 h⁻¹ | Calculated half-life t1/2, degradation d ([1]; CD-1, mouse, plasma): 13.3 h | Calculated half-life t1/2, enantiomerization +− ([1]; CD-1, mouse, plasma): 11.5 h | Calculated half-life t1/2, enantiomerization −+ ([1]; CD-1, mouse, plasma): 5.8 h | k +− (enantiomerization rate constant h+ to h−) ([2]; human): 0.297 h⁻¹ | k d (degradation rate constant) ([2]; human): 2.68e-05 s⁻¹ | k −+ (enantiomerization rate constant h− to h+) ([2]; human): 0.220 h⁻¹ | Calculated half-life t1/2, degradation d ([2]; human, plasma): 7.2 h | Calculated half-life t1/2, enantiomerization +− ([2]; human, plasma): 2.3 h | half-life ([2]; human, plasma, Calculated half-life t1/2, enantiomerization −+): 3.2 h

[2H]C1(n2c(C)nc3cccc(N)c3c2=O)CCC(=O)NC1=O (single isomer, unassigned; (-)) [d−, (−)-3-(5-Amino-2-methyl-4-oxoquinazolin-3(4H)-yl)-(3-^2H)-piperidine-2,6-dione]
t1/2, compound analyzed d− [3, 9]: 1.2 h | t1/2, compound analyzed h− [3, 9]: 1.2 h | AUC, compound analyzed d+ [3, 9]: 898 ng·h/mL | AUC, compound analyzed d− [3, 9]: 44100 ng·h/mL | AUC, compound analyzed h+ [3, 9]: 1180 ng·h/mL | AUC, compound analyzed h− [3, 9]: 6160 ng·h/mL | potency/efficacy at limiting tumor growth, comparison between compounds [4]: more potent at limiting tumor growth at both doses than h-rac

Cc1nc2cccc(N)c2c(=O)n1C1CCC(=O)NC1=O (single isomer, unassigned; (-)) [h−, (−)-3-(5-amino-2-methyl-4-oxoquinazolin-3(4H)-yl)-piperidine-2,6-dione, reference compound]
k +− (enantiomerization rate constant h+ to h−) ([1]; CD-1, mouse): 0.0722 h⁻¹ | k d (degradation rate constant) ([1]; CD-1, mouse): 1.51e-05 s⁻¹ | k −+ (enantiomerization rate constant h− to h+) ([1]; CD-1, mouse): 0.0730 h⁻¹ | half-life ([1]; CD-1, mouse, plasma, Calculated half-life t1/2, degradation d): 12.7 h | half-life ([1]; CD-1, mouse, plasma, Calculated half-life t1/2, enantiomerization +−): 9.6 h | half-life ([1]; CD-1, mouse, plasma, Calculated half-life t1/2, enantiomerization −+): 9.5 h | share of the total exposure ([3]; mice, exposure to the enantiomers of the protonated molecule (h-rac dosed)): 39% | k +− (enantiomerization rate constant h+ to h−) ([2]; human): 0.231 h⁻¹ | k d (degradation rate constant) ([2]; human): 2.35e-05 s⁻¹ | k −+ (enantiomerization rate constant h− to h+) ([2]; human): 0.169 h⁻¹ | half-life ([2]; human, plasma, Calculated half-life t1/2, degradation d): 8.2 h | half-life ([2]; human, plasma, Calculated half-life t1/2, enantiomerization +−): 3 h
